Key:
[1] = system: Escherichia coli; assay: Antibacterial activity against Escherichia coli ATCC 25922 measured after 18 hrs by CLSI based broth microdilution method; format: functional
[2] = system: Staphylococcus aureus; assay: Antibacterial activity against methicillin-resistant Staphylococcus aureus clinical isolate 22 measured after 18 hrs by CLSI based broth microdilution method; format: functional
[3] = system: Staphylococcus aureus; assay: Antibacterial activity against methicillin-resistant Staphylococcus aureus clinical isolate 12 measured after 18 hrs by CLSI based broth microdilution method; format: functional
[4] = system: Staphylococcus aureus; assay: Antibacterial activity against methicillin-resistant Staphylococcus aureus clinical isolate 14 measured after 18 hrs by CLSI based broth microdilution method; format: functional
[5] = Hemolytic activity in sheep erythrocyte assessed as hemolysis incubated for 1 hr by absorbance based analysis; format: toxicity, cell-based, Ovis aries; conditions: sheep erythrocytes
[6] = system: Staphylococcus aureus; assay: Antibacterial activity against methicillin-resistant Staphylococcus aureus clinical isolate 20 measured after 18 hrs by CLSI based broth microdilution method; format: functional
[7] = system: Staphylococcus aureus; assay: Antibacterial activity against methicillin-resistant Staphylococcus aureus clinical isolate 23 measured after 18 hrs by CLSI based broth microdilution method; format: functional
[8] = system: Staphylococcus aureus; assay: Antibacterial activity against methicillin-resistant Staphylococcus aureus clinical isolate 21 measured after 18 hrs by CLSI based broth microdilution method; format: functional
[9] = system: Staphylococcus aureus; assay: Antibacterial activity against methicillin-resistant Staphylococcus aureus clinical isolate 11 measured after 18 hrs by CLSI based broth microdilution method; format: functional
[10] = system: Staphylococcus aureus; assay: Antibacterial activity against methicillin-resistant Staphylococcus aureus clinical isolate 16 measured after 18 hrs by CLSI based broth microdilution method; format: functional
[11] = system: Staphylococcus aureus; assay: Antibacterial activity against Staphylococcus aureus ATCC 29213 measured after 18 hrs by CLSI based broth microdilution method; format: functional
[12] = system: Staphylococcus aureus; assay: Antibacterial activity against methicillin-resistant Staphylococcus aureus clinical isolate 13 measured after 18 hrs by CLSI based broth microdilution method; format: functional
[13] = system: Staphylococcus aureus; assay: Antibacterial activity against methicillin-resistant Staphylococcus aureus clinical isolate 17 measured after 18 hrs by CLSI based broth microdilution method; format: functional
[14] = Selectivity index, ratio of HC50 for hemolytic activity in sheep erythrocyte assessed as hemolysis to MIC for antibacterial activity against Staphylococcus aureus ATCC 29213; format: toxicity; conditions: sheep erythrocytes, read-out: Selectivity Index

Structure (SMILES)	MIC [1]	MIC [2]	MIC [3]	MIC [4]	HC50 at 1 h [5]	MIC [6]	MIC [7]	MIC [8]	MIC [9]	MIC [10]	MIC [11]	MIC [12]	MIC [13]	selectivity ratio [14]
CCN(CC)C(=O)C[N+](C)(C)CCCOc1ccc2ccc(=O)oc2c1CC=C(C)C.[Br-]	128 µg/mL	128 µg/mL	128 µg/mL	128 µg/mL	> 1280 µg/mL	128 µg/mL	128 µg/mL	128 µg/mL	128 µg/mL	128 µg/mL	128 µg/mL	128 µg/mL	128 µg/mL	> 10
CCCCNC(=O)C[N+](C)(C)CCCOc1ccc2ccc(=O)oc2c1CC=C(C)C.[Br-]	128 µg/mL	32 µg/mL	64 µg/mL	32 µg/mL	> 1280 µg/mL	64 µg/mL	32 µg/mL	32 µg/mL	64 µg/mL	32 µg/mL	32 µg/mL	32 µg/mL	32 µg/mL	> 40
CCCNC(=O)C[N+](C)(C)CCCCCOc1ccc2ccc(=O)oc2c1CC=C(C)C.[Br-]	128 µg/mL	32 µg/mL	32 µg/mL	16 µg/mL	1140 µg/mL	32 µg/mL	32 µg/mL	32 µg/mL	32 µg/mL	16 µg/mL	32 µg/mL	32 µg/mL	32 µg/mL	35.8
CCCCCCNC(=O)C[N+](C)(C)CCCOc1ccc2ccc(=O)oc2c1CC=C(C)C.[Br-]	32 µg/mL	4 µg/mL	8 µg/mL	4 µg/mL	> 1280 µg/mL	4 µg/mL	4 µg/mL	4 µg/mL	4 µg/mL	4 µg/mL	4 µg/mL	8 µg/mL	4 µg/mL	> 320
CCCCN(CCCC)C(=O)C[N+](C)(C)CCCCCOc1ccc2ccc(=O)oc2c1CC=C(C)C.[Br-]	128 µg/mL	1 µg/mL	2 µg/mL	1 µg/mL	989 µg/mL	1 µg/mL	1 µg/mL	1 µg/mL	1 µg/mL	1 µg/mL	1 µg/mL	2 µg/mL	1 µg/mL	989
CCCN(CCC)C(=O)C[N+](C)(C)CCCOc1ccc2ccc(=O)oc2c1CC=C(C)C.[Br-]	128 µg/mL	32 µg/mL	32 µg/mL	16 µg/mL	> 1280 µg/mL	32 µg/mL	32 µg/mL	32 µg/mL	32 µg/mL	32 µg/mL	32 µg/mL	32 µg/mL	16 µg/mL	> 40
CCNC(=O)C[N+](C)(C)CCCOc1ccc2ccc(=O)oc2c1CC=C(C)C.[Br-]	> 128 µg/mL	128 µg/mL	128 µg/mL	128 µg/mL	> 640 µg/mL	128 µg/mL	128 µg/mL	128 µg/mL	128 µg/mL	128 µg/mL	128 µg/mL	128 µg/mL	128 µg/mL	> 5
CCNC(=O)C[N+](C)(C)CCCCCOc1ccc2ccc(=O)oc2c1CC=C(C)C.[Br-]	> 128 µg/mL	32 µg/mL	64 µg/mL	32 µg/mL	> 1280 µg/mL	64 µg/mL	32 µg/mL	64 µg/mL	64 µg/mL	32 µg/mL	64 µg/mL	64 µg/mL	64 µg/mL	> 20
CC(C)=CCc1c(OCCC[N+](C)(C)CC(=O)N(CC(C)C)CC(C)C)ccc2ccc(=O)oc12.[Br-]	128 µg/mL	4 µg/mL	8 µg/mL	4 µg/mL	> 1280 µg/mL	4 µg/mL	4 µg/mL	4 µg/mL	4 µg/mL	4 µg/mL	4 µg/mL	4 µg/mL	4 µg/mL	> 320
CC(C)=CCc1c(OCCCC[N+](C)(C)CC(=O)N(CC(C)C)CC(C)C)ccc2ccc(=O)oc12.[Br-]	128 µg/mL	4 µg/mL	4 µg/mL	2 µg/mL	> 1280 µg/mL	2 µg/mL	2 µg/mL	2 µg/mL	2 µg/mL	2 µg/mL	4 µg/mL	4 µg/mL	1 µg/mL	> 320
CC(C)=CCc1c(OCCCCC[N+](C)(C)CC(=O)N(CC(C)C)CC(C)C)ccc2ccc(=O)oc12.[Br-]	128 µg/mL	1 µg/mL	2 µg/mL	1 µg/mL	960 µg/mL	1 µg/mL	1 µg/mL	1 µg/mL	1 µg/mL	1 µg/mL	2 µg/mL	2 µg/mL	1 µg/mL	480

— ChEMBL document CHEMBL5500372, “Novel natural osthole-inspired amphiphiles as membrane targeting antibacterials against methicillin-resistant Staphylococcus aureus (MRSA)” (Eur J Med Chem, 2024)
